Measured values: PubChem BioAssay AID1963985 (Molecular Pharmacology Branch, DTP, NCI, 2024)

Test system: 252836-082-R-J2-PDC tumor spheroids, viability
Assay: Anticancer human tumor 252836-082-R-J2-PDC patient-derived head and neck squamous cell carcinoma cell line growth inhibition [PI3K]
Details: spheroids with HUVEC and MSC; for viability, T/C: stronger effect = lower value
Method in brief: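 Stroma-containing spheroids: tumor line, pooled-donor HUVEC, hMSC. Treatments: targeted agents with PI3K inhibitors. Dosing: clinically relevant, half-log spacing, 10 microM ceiling without known Cmax. Read-out: cell viability.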

[1] = curve of first compound, second compound 0.0316 µM
[2] = curve of first compound, second compound 0.1 µM
[3] = curve of first compound, second compound 0.316 µM
[4] = curve of first compound, second compound 1 µM
[5] = second compound 0.0316 µM, first compound 0.0316 µM
[6] = second compound 0.0316 µM, first compound 0.1 µM
[7] = second compound 0.1 µM, first compound 0.0316 µM
[8] = second compound 0.1 µM, first compound 0.1 µM
[9] = second compound 0.316 µM, first compound 0.0316 µM
[10] = second compound 0.316 µM, first compound 0.1 µM
[11] = second compound 1 µM, first compound 0.0316 µM
[12] = second compound 1 µM, first compound 0.1 µM
[13] = curve of first compound, second compound 3.16 µM
[14] = curve of first compound, second compound 10 µM
[15] = second compound 0.0316 µM, first compound 0.000316 µM
[16] = second compound 0.0316 µM, first compound 0.001 µM
[17] = second compound 0.0316 µM, first compound 0.00316 µM
[18] = second compound 0.0316 µM, first compound 0.01 µM
[19] = second compound 0.1 µM, first compound 0.000316 µM
[20] = second compound 0.1 µM, first compound 0.001 µM
[21] = second compound 0.1 µM, first compound 0.00316 µM
[22] = second compound 0.1 µM, first compound 0.01 µM
[23] = second compound 0.316 µM, first compound 0.000316 µM
[24] = second compound 0.316 µM, first compound 0.001 µM
[25] = second compound 0.316 µM, first compound 0.00316 µM
[26] = second compound 0.316 µM, first compound 0.01 µM
[27] = second compound 1 µM, first compound 0.000316 µM
[28] = second compound 1 µM, first compound 0.001 µM
[29] = second compound 1 µM, first compound 0.00316 µM
[30] = second compound 1 µM, first compound 0.01 µM
[31] = second compound 3.16 µM, first compound 0.000316 µM
[32] = second compound 3.16 µM, first compound 0.001 µM
[33] = second compound 3.16 µM, first compound 0.00316 µM
[34] = second compound 3.16 µM, first compound 0.01 µM
[35] = second compound 3.16 µM, first compound 0.0316 µM
[36] = second compound 3.16 µM, first compound 0.1 µM
[37] = second compound 10 µM, first compound 0.000316 µM
[38] = second compound 10 µM, first compound 0.001 µM
[39] = second compound 10 µM, first compound 0.00316 µM
[40] = second compound 10 µM, first compound 0.01 µM
[41] = second compound 10 µM, first compound 0.0316 µM
[42] = second compound 10 µM, first compound 0.1 µM
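Further: spheroids exposed to agents for seven days before readout.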
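Wherever viability, T/C is given: percent of vehicle DMSO control viability so 100% = untreated growth.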

Compound `CNC(=O)c1ccc(N2C(=S)N(c3ccc(C#N)c(C(F)(F)F)c3)C(=O)C2(C)C)cc1F` + CC(Nc1ccc2c(c1)OCCn1cc(N3C(=O)OCC3C(F)F)nc1-2)C(N)=O has an IC50 (curve of first compound, second compound 0.00316 µM) greater than 10000 nM, an IC50 (curve of first compound, second compound 0.01 µM) greater than 10000 nM and an IC50 [1] greater than 10000 nM. For the same compound, the IC50 [2] was greater than 10000 nM, the IC50 [3] was greater than 10000 nM and the IC50 [4] was less than 31.6 nM. For the same compound, the viability, T/C (second compound 0.00316 µM, first compound 0.0316 µM) was 97%, the viability, T/C (second compound 0.00316 µM, first compound 0.1 µM) was 84.2% and the viability, T/C (second compound 0.00316 µM, first compound 0.316 µM) was 92.5%. For the same compound, the viability, T/C (second compound 0.00316 µM, first compound 1 µM) was 91.6%, the viability, T/C (second compound 0.00316 µM, first compound 3.16 µM) was 102% and the viability, T/C (second compound 0.00316 µM, first compound 10 µM) was 84.1%. The viability, T/C (second compound 0.01 µM, first compound 0.0316 µM) was 96.5%, the viability, T/C (second compound 0.01 µM, first compound 0.1 µM) was 99.9% and the viability, T/C (second compound 0.01 µM, first compound 0.316 µM) was 82%. The viability, T/C (second compound 0.01 µM, first compound 1 µM) was 89.1%, the viability, T/C (second compound 0.01 µM, first compound 3.16 µM) was 103% and the viability, T/C (second compound 0.01 µM, first compound 10 µM) was 98%. For the same compound, the viability, T/C [5] was 90.8%, the viability, T/C [6] was 81.7% and the viability, T/C (second compound 0.0316 µM, first compound 0.316 µM) was 80.2%. It also gave a viability, T/C (second compound 0.0316 µM, first compound 1 µM) of 77.1%, a viability, T/C (second compound 0.0316 µM, first compound 3.16 µM) of 75.1% and a viability, T/C (second compound 0.0316 µM, first compound 10 µM) of 78.9%. It also gave a viability, T/C [7] of 68.9%, a viability, T/C [8] of 69.5% and a viability, T/C (second compound 0.1 µM, first compound 0.316 µM) of 73.7%. It also gave a viability, T/C (second compound 0.1 µM, first compound 1 µM) of 66%, a viability, T/C (second compound 0.1 µM, first compound 3.16 µM) of 61.5% and a viability, T/C (second compound 0.1 µM, first compound 10 µM) of 67.9%. The viability, T/C [9] was 55.4%, the viability, T/C [10] was 58.3% and the viability, T/C (second compound 0.316 µM, first compound 0.316 µM) was 53%. For the same compound, the viability, T/C (second compound 0.316 µM, first compound 1 µM) was 51.9%, the viability, T/C (second compound 0.316 µM, first compound 3.16 µM) was 61.9% and the viability, T/C (second compound 0.316 µM, first compound 10 µM) was 52.3%. It also gave a viability, T/C [11] of 46.3%, a viability, T/C [12] of 44% and a viability, T/C (second compound 1 µM, first compound 0.316 µM) of 43.2%. For the same compound, the viability, T/C (second compound 1 µM, first compound 1 µM) was 50.5%, the viability, T/C (second compound 1 µM, first compound 3.16 µM) was 51.4% and the viability, T/C (second compound 1 µM, first compound 10 µM) was 45.8%.
With `Cn1ncnc1[C@H]1c2n[nH]c(=O)c3cc(F)cc(c23)N[C@@H]1c1ccc(F)cc1` + CC(Nc1ncnc2nc[nH]c12)c1cc2cccc(Cl)c2c(=O)n1-c1ccccc1 the IC50 [1] was greater than 100 nM, the IC50 [2] was greater than 100 nM and the IC50 [3] was greater than 100 nM. It also gave an IC50 [4] greater than 100 nM, an IC50 [13] of 90.3 nM and an IC50 [14] of 23.1 nM. For the same compound, the viability, T/C [15] was 95.5%, the viability, T/C [16] was 79.7% and the viability, T/C [17] was 94%. The viability, T/C [18] was 94.4%, the viability, T/C [5] was 79.6% and the viability, T/C [6] was 58.8%. For the same compound, the viability, T/C [19] was 94.3%, the viability, T/C [20] was 82.6% and the viability, T/C [21] was 79.3%. It also gave a viability, T/C [22] of 87.6%, a viability, T/C [7] of 79.1% and a viability, T/C [8] of 51.9%. It also gave a viability, T/C [23] of 97.5%, a viability, T/C [24] of 84% and a viability, T/C [25] of 79.5%. The viability, T/C [26] was 80%, the viability, T/C [9] was 76.9% and the viability, T/C [10] was 57.8%. The viability, T/C [27] was 84.8%, the viability, T/C [28] was 97.9% and the viability, T/C [29] was 77.4%. The viability, T/C [30] was 81.5%, the viability, T/C [11] was 68.3% and the viability, T/C [12] was 57.9%. It also gave a viability, T/C [31] of 71.5%, a viability, T/C [32] of 85.4% and a viability, T/C [33] of 82.8%. It also gave a viability, T/C [34] of 64.3%, a viability, T/C [35] of 64.7% and a viability, T/C [36] of 48.2%. It also gave a viability, T/C [37] of 55.1%, a viability, T/C [38] of 59.4% and a viability, T/C [39] of 58.8%. For the same compound, the viability, T/C [40] was 63.4%, the viability, T/C [41] was 46.5% and the viability, T/C [42] was 31.2%.
`C#Cc1c(F)ccc2cc(O)cc(-c3ncc4c(N5CC6CCC(C5)N6)nc(OCC56CCCN5CC(F)C6)nc4c3F)c12` (stereo unspecified) was tested, and the viability, T/C (compound 0.0316 µM) was 89.5% [middle of 4 runs], the viability, T/C (compound 1 µM) was 87.9% [middle of 4 runs] and the viability, T/C (compound 3.16 µM) was 83.4% [middle of 4 runs]. The viability, T/C (compound 10 µM) was 67.8% [middle of 4 runs] and the IC50 (curve of compound) was greater than 10000 nM.
In the case of `CC(C)n1nc(-c2ccc3oc(N)nc3c2)c2c(N)ncnc21` + Cc1nc(NC(=O)N2CCCC2C(N)=O)sc1-c1ccnc(C(C)(C)C(F)(F)F)c1, the IC50 [1] is reported as 32.2 nM, the IC50 [2] is reported as 27.6 nM and the IC50 [3] is reported as 21.2 nM. For the same compound, the IC50 [4] was 12.6 nM, the IC50 [13] was less than 0.316 nM and the IC50 [14] was less than 0.316 nM. For the same compound, the viability, T/C [15] was 84.3%, the viability, T/C [16] was 76% and the viability, T/C [17] was 98%. For the same compound, the viability, T/C [18] was 71.5%, the viability, T/C [5] was 51.7% and the viability, T/C [6] was 21.3%. For the same compound, the viability, T/C [19] was 83.8%, the viability, T/C [20] was 83.1% and the viability, T/C [21] was 79.8%. For the same compound, the viability, T/C [22] was 63.9%, the viability, T/C [7] was 49% and the viability, T/C [8] was 23%. It also gave a viability, T/C [23] of 82.1%, a viability, T/C [24] of 73.1% and a viability, T/C [25] of 75.8%. The viability, T/C [26] was 59.6%, the viability, T/C [9] was 44.4% and the viability, T/C [10] was 20.7%. It also gave a viability, T/C [27] of 56.5%, a viability, T/C [28] of 53.4% and a viability, T/C [29] of 61.6%. For the same compound, the viability, T/C [30] was 48.7%, the viability, T/C [11] was 42.6% and the viability, T/C [12] was 19.5%. For the same compound, the viability, T/C [31] was 43.2%, the viability, T/C [32] was 55.2% and the viability, T/C [33] was 47.5%. It also gave a viability, T/C [34] of 40%, a viability, T/C [35] of 28.6% and a viability, T/C [36] of 17.2%. The viability, T/C [37] was 33.2%, the viability, T/C [38] was 31.1% and the viability, T/C [39] was 29.6%. The viability, T/C [40] was 35.4%, the viability, T/C [41] was 18.8% and the viability, T/C [42] was 8.12%.
